The source of these data is EP2650284A1, “Heterocyclic derivatives as metabotropic glutamate receptor modulators” (Merz Pharma GmbH & Co. KGaA, priority 2012, dated 2013).

Like-named read-outs stand apart in the source and are kept apart here.

One assay concerns the target T1, mGluR5 receptors (Rattus norvegicus, UniProt P31424).
T1 construct: Primary astrocyte cultures are prepared from cortices of newborn rats; endogenous in cells; host or cells: primary cortical astrocytes from Sprague-Dawley rat pups (2-4 d old)
Description: Cytosolic calcium studies with astrocytes (FLIPR), functional assay of mGluR5 receptors. It is filed as cell-based. The procedure: Primary astrocyte cultures are prepared from cortices of newborn rats as described by Booher and Sensenbrenner (1972, Neurobiology 2(3):97-105). Briefly, Sprague-Dawley rat pups (2 - 4 d old) are decapitated and neocortices are dissected, disintegrated with a nylon filter (pore size 80 µm) and carefully triturated. The cell suspension is plated on poly-D-lysine pre-coated flasks (Costar, Netherlands) and cultivated in Dulbecco's Modified Eagle's Medium (DMEM, Invitrogen, Germany) supplemented with 10% foetal calf serum (FCS, Sigma, Germany), 4 mM glutamine and 50 µg/ml gentamycin (both Biochrom, Germany) at 37°C in a humidified atmosphere of 5% CO2/ 95% air for 7 days with exchanging the medium at day 2 and 6.
After 7 days in vitro (DIV), cells are shaken overnight at 250 rpm to remove oligodendrocytes and microglia. The next day, astrocytes are rinsed twice with CMF-PBS (calcium- and magnesium-free phosphate buffered saline, Biochrom, Germany), trypsinized and subplated on poly-D-lysine pre-coated 96-well plates (Greiner, Germany) at a density of 40,000 cells/well. 24 h after establishing the secondary culture the astrocytes are rinsed with PBS^++ (phosphate buffered saline, Biochrom, Germany) and fed with astrocyte-defined medium (ADM) consisting of DMEM containing 1x G5-supplement (Invitrogen, Germany), 0.5 µg/ml heparan sulfate, and 1.5 µg/ml fibronectin (both Sigma, Germany) (Miller et al., (1993) Brain Res. 618(1):175-8). 3 days later the medium is exchanged and the cells incubated for another 2-3 days, so that at the time of experiments astrocytes are 14-15 DIV.
The increase of cytosolic calcium after stimulation with the mGluR5 agonist L-quisqualate is measured using a fluorometric imaging plate reader (FLIPR) and the Ca-Kit (both Molecular Devices). Prior to addition of agonist or antagonist the medium is aspirated and cells are loaded for 2 h at RT with 150 µl of loading buffer consisting of Ca-sensitive dye reconstituted in sodium chloride (123 mM), potassium chloride (5.4 mM), magnesium chloride (0.8 mM), calcium chloride (1.8 mM), D-glucose (15 mM), and HEPES (20 mM), pH 7.3. Subsequently, plates are transferred to FLIPR to detect calcium increase with the addition of L-quisqualate (100 nM) measured as relative fluorescence units (RFU). If antagonists are tested, these compounds are pre-incubated for 10 minutes at RT before addition of the respective agonist.
For positive modulators, concentration-response curves for quisqualate are performed in the presence and absence of 10 µM modulator to determine the extent of potentiation / agonist potency increase. Thereafter, concentration-response curves for the positive modulator are performed in the presence of a fixed concentration of quisqualate showing the biggest window for potentiation (normally 10-30 nM).
(§1) The fluorescence signal increase after addition of agonist reflects the increase of cytosolic calcium. Inconsistencies in the amount of cells per well are normalised by using the spatial uniformity correction of the FLIPR operating software Screenworks. The mean of replicated temporal data (n=3-5) is calculated and used for graphical representation. For the evaluation of the pharmacology, the calcium changes in response to different concentrations of agonist or antagonist are determined using a maximum minus minimum (MaxMin) calculation.
(§2) All responses (RFU-values) are determined as percentage of control (= maximum response). EC50 and IC50 are calculated according the logistic equation using XLFit (IDBS, UK) or Prism 4.0 (GraphPad Software, USA). The compounds of the present invention have a potency (EC50 or IC50) within a range of about 0.5 nM to about 100 µM. The left shifts for positive or slient allosteric modulators (PAMs or SAMs, respectively) are determined by comparison of EC50 values from agonist dose response curves run in the presence of 10 µM modulator or vehicle (Vanejevs et al., J. Med. Chem., 2008, 51, 634-647).

For assay [1], the target named is T2, human metabotropic glutamate receptor mGluR5 (Homo sapiens, UniProt P41594).
T2 construct: expressed in transfected cells; host or cells: CHO-K1 (h5CHO), IPTG-inducible
In words: Cytosolic calcium studies with stably transfected cells (h5CHO), functional assay of mGluR5 receptors. To be noted: for EC50: positive modulators, h5CHO cells preincubated with modulator, stimulated by an EC20 concentration of L-glutamate, read-out: hEC50. The format is cell-based. The procedure: Chinese hamster ovary cells (CHO-K1 cells), stably transfected for inducible expression of a human metabotropic glutamate receptor mGluR5 to form a cell line called h5CHO, are seeded into black clear bottom 96 well plates at a density of 35.000 cells per well. The standard growth medium used (Dulbecco's modified Eagle Medium, DMEM plus L-proline) contains the appropriate inducer isopropyl-β-D-thiogalactopyranosid (IPTG) to achieve optimal receptor expression. One day after seeding the growth medium is exchanged for reconstituted Ca-Kit (Molecular Devices, USA) and incubated for one hour. Ca-Kit is reconstituted in an assay buffer containing 20 mM HEPES pH 7.4, glutamic-pyruvate transaminase, pyridoxal phosphate and sodium pyruvate in Hank's balanced salt solution (HBBS). Agonistic compounds to the receptor elicit increases in cytosolic calcium which can be measured as increases in fluorescence signals by use of a fluorescence imaging plate reader (Molecular Devices). To analyze their potency to negatively modulate the Ca-response test compounds, dissolved in a final DMSO concentration of 0.5%, are added on-line 5 minutes before the agonist to the receptor (L-quisqualic acid at a concentration giving ~80% of the maximal signal). EC50 values for positive allosteric modulators were determined by stimulating the cells which have been preincubated the modulators by an EC20 concentration of L-glutamate.
as §1, §2

Where [2] appears, read: Table A3 (SAMs / very weak PAMs), quisqualate EC50 shift with 10 µM modulator.
Where [3] appears, read: Table A3, given in brackets where Ki is n.d., read-out: r EC50.
[4] abbreviates: Table A3 (SAMs / very weak PAMs), agonist EC50 shift with 10 µM modulator or vehicle, h5CHO cells.
Setting [5] is: Table A1, left shift of quisqualate EC50 in the presence and absence of 10 µM modulator.
Where [6] appears, read: Table A1, positive modulators, fixed concentration of quisqualate (normally 10-30 nM), read-out: rEC50.
[7] abbreviates: Table A1, left shift of agonist EC50, dose response curves in the presence of 10 µM modulator or vehicle, h5CHO cells.

T1 sequence (P31424 21-1203): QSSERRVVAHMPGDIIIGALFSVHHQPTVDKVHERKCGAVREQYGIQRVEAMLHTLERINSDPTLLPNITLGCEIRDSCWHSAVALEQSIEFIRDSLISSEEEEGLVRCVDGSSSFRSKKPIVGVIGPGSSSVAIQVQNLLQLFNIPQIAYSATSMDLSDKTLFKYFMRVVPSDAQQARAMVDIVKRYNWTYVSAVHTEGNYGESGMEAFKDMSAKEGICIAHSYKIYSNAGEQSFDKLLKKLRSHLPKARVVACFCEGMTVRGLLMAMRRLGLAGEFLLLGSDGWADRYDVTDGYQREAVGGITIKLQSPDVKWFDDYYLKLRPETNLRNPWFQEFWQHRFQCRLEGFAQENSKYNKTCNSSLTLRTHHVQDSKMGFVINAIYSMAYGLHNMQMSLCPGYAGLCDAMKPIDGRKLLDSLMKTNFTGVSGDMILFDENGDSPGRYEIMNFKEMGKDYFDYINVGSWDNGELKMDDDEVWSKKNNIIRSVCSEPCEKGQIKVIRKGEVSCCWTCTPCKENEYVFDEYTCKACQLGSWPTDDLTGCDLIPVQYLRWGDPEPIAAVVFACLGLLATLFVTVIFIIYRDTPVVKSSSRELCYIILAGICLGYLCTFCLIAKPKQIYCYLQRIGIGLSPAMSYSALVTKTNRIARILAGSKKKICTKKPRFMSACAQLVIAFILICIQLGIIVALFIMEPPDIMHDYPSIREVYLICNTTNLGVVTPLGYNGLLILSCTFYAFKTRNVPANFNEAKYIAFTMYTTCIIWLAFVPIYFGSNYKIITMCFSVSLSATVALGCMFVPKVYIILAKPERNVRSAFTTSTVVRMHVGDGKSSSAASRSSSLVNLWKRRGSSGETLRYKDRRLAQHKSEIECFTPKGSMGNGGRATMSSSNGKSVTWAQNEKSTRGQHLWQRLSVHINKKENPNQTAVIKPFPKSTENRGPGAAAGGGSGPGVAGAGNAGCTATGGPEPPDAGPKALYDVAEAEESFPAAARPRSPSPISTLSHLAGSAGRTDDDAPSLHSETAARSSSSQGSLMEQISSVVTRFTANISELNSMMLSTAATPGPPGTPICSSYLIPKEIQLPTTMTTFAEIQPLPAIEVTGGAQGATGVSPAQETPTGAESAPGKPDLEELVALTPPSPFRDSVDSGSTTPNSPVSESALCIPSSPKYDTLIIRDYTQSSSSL
T2 sequence (P41594 21-1212): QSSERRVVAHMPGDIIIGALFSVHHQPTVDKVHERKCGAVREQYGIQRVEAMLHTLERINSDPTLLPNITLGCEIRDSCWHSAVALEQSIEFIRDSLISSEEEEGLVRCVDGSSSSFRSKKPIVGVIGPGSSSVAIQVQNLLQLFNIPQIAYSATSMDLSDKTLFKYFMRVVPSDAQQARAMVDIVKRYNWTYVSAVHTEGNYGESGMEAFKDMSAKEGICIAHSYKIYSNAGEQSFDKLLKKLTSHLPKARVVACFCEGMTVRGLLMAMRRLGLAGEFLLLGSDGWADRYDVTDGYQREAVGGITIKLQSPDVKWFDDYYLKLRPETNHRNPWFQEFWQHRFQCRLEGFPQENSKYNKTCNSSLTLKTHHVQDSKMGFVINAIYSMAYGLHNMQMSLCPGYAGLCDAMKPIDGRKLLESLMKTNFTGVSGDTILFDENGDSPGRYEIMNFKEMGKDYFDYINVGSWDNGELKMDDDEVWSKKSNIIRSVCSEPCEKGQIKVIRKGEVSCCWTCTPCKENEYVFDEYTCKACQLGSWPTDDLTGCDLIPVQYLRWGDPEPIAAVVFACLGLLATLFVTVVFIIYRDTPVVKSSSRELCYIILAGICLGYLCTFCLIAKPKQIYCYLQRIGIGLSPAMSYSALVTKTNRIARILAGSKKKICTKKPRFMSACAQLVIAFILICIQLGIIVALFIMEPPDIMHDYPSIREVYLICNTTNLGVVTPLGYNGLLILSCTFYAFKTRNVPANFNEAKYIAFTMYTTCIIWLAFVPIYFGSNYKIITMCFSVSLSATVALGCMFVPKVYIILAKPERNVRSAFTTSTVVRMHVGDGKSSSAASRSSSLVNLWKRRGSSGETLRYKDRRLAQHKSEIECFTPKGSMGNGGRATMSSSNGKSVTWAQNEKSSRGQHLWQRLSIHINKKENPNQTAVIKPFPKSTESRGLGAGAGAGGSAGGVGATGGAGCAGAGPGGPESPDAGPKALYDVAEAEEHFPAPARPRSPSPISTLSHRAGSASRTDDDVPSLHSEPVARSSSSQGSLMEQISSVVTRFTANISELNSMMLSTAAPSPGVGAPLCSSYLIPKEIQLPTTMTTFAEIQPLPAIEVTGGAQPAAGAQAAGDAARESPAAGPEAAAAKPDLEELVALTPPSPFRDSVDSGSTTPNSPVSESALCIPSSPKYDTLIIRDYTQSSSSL

As for `O=C1OC2(CCCc3ncc(C#Cc4cccc(F)c4)cc32)CN1C1CC1` (racemic) [Example 76, (rac)-3-Cyclopropyl-3'-((3-fluorophenyl)ethynyl)-7',8'-dihydro-6'H-spiro[oxazolidine-5,5'-quinolin]-2-one], the r left shift on mGluR5 receptors (setting [2]) is reported as 1.4-fold. The EC50 at mGluR5 receptors (setting [3]) turned out to be 50.5 nM. Moreover, the h left shift in assay [1] (setting [4]) is 1.6-fold.
As to `CCCN1CCO[C@@H]2c3cc(C#Cc4ccc(F)cc4)cnc3CC[C@@H]21` (racemic) [Example 20, (rac)-cis-9-((4-Fluorophenyl)ethynyl)-4-propyl-3,4,4a,5,6,10b-hexahydro-2H-[1,4]oxazino[2,3-f]quinoline], on mGluR5 receptors (setting [5]), the r left shift is 3.3-fold. Further, the EC50 is 1350 nM at mGluR5 receptors (setting [6]) and 394 nM in assay [1] (Table A1). The h left shift in assay [1] (setting [7]) is 1.8-fold.
The matching figures for `COC(=O)N1CC2CCc3ncc(C#Cc4ccccc4)cc3C2C1` (centres unmarked) [Example 30, Methyl 8-(phenylethynyl)-3,3a,4,5-tetrahydro-1H-pyrrolo[3,4-f]quinoline-2(9bH)-carboxylate]: 3.0-fold, 256 nM, 345 nM and 2.5-fold.
For `Cn1ncc2c1-c1cc(C#Cc3ccccc3)cnc1CC2` [Example 28, 1-Methyl-8-(phenylethynyl)-4,5-dihydro-1H-pyrazolo[3,4-f]quinoline], the r left shift at mGluR5 receptors (setting [5]) was 2.2-fold. Further, in assay [1] (setting [7]), the h left shift is 2.4-fold. Also, the EC50 in assay [1] (Table A1) turned out to be 19.2 nM.
Take `COC(=O)N1C2CCC1c1cc(C#Cc3cccc(F)c3)cnc1C2` (racemic) [Example 59, (rac)-Methyl 3-((3-fluorophenyl)ethynyl)-6,7,8,9-tetrahydro-5H-5,8-epiminocyclohepta[b]pyridine-10-carboxylate]: at mGluR5 receptors (setting [5]), the r left shift is reported as 3.3-fold. For the same compound, the EC50 was 102 nM at mGluR5 receptors (setting [6]) and 277 nM in assay [1] (Table A1). In addition, the h left shift in assay [1] (setting [7]) is listed as 1.8-fold.
Regarding `CC(C)S(=O)(=O)N1CCc2ncc(C#Cc3ccccc3)cc2C1` [Example 81, 6-(Isopropylsulfonyl)-3-(phenylethynyl)-5,6,7,8-tetrahydro-1,6-naphthyridine], the r left shift on mGluR5 receptors (setting [2]) is 1.5-fold. On mGluR5 receptors (setting [3]), the EC50 came out at 51.1 nM. Further, the h left shift in assay [1] (setting [4]) is 1.5-fold.
Regarding `O=C(N1CCC1)N1CCO[C@@H]2c3cc(C#Cc4ccccc4)cnc3CC[C@@H]21` (racemic) [Example 65, (rac)-cis-Azetidin-1-yl-(9-(phenylethynyl)-5,6-dihydro-2H-[1,4]oxazino[2,3-f]quinolin-4(3H,4aH,10bH)-yl)methanone], the EC50 at mGluR5 receptors (setting [6]) turned out to be 3200 nM. For the same compound, the h left shift in assay [1] (setting [7]) is listed as 1.8-fold.
As to `FC(F)(F)CN1CCO[C@@H]2c3cc(C#Cc4ccccc4)cnc3CC[C@@H]21` (racemic) [Example 24, (rac)-cis-9-(Phenylethynyl)-4-(2,2,2-trifluoroethyl)-3,4,4a,5,6,10b-hexahydro-2H-[1,4]oxazino[2,3-f]quinoline], the r left shift at mGluR5 receptors (setting [5]) is 4.2-fold. Also, the EC50 at mGluR5 receptors (setting [6]) is 134 nM; in assay [1] (Table A1), 65.3 nM. For the same compound, in assay [1] (setting [7]), the h left shift is recorded as 2.1-fold.
In the case of `CCOC(=O)C(=O)N1CCc2ncc(C#Cc3ccccc3)cc2C1` [Example 77, Ethyl 2-oxo-2-(3-(phenylethynyl)-7,8-dihydro-1,6-naphthyridin-6(5H)-yl)acetate], at mGluR5 receptors (setting [5]), the r left shift was 2.8-fold. Moreover, the EC50 on mGluR5 receptors (setting [6]) was determined as 22.1 nM; in assay [1] (Table A1) it was 25.4 nM. In assay [1] (setting [7]), the h left shift is listed as 2.8-fold.
Regarding `O=S(=O)(C1CC1)N1CCc2ncc(C#Cc3ccccc3)cc2C1` [Example 38, 6-(Cyclopropylsulfonyl)-3-(phenylethynyl)-5,6,7,8-tetrahydro-1,6-naphthyridine], at mGluR5 receptors (setting [5]), the r left shift was 2.5-fold. In addition, the EC50 on mGluR5 receptors (setting [6]) is 481 nM. Also, the h left shift in assay [1] (setting [7]) is on record as 1.7-fold.
Consider `O=C(N1CCCCC1)N1CCc2ncc(C#Cc3ccccc3)cc2C1` [Example 50, (3-(Phenylethynyl)-7,8-dihydro-1,6-naphthyridin-6(5H)-yl)(piperidin-1-yl)methanone], for which the r left shift at mGluR5 receptors (setting [5]) is listed as 1.9-fold. The h left shift in assay [1] (setting [7]) is 2.1-fold. Besides, the EC50 in assay [1] (Table A1) was 843 nM.
For the compound `COC(=O)N1C[C@H]2Cc3cc(C#Cc4cccc(F)c4)cnc3[C@H]2C1` (racemic) [Example 73, (rac)-cis-Methyl 3-((3-fluorophenyl)ethynyl)-5a,6,8,8a-tetrahydropyrrolo[3',4':4,5]cyclopenta[1,2-b]pyridine-7(5H)-carboxylate], the r left shift at mGluR5 receptors (setting [5]) is 2.7-fold. In addition, the EC50 came out at 219 nM on mGluR5 receptors (setting [6]) and 546 nM in assay [1] (Table A1). The h left shift in assay [1] (setting [7]) was 2.7-fold.
In the case of `N#Cc1cccc(C#Cc2cnc3c(c2)CN(C(=O)N2CCCCC2)CC3)c1` [Example 51, 3-((6-(Piperidine-1-carbonyl)-5,6,7,8-tetrahydro-1,6-naphthyridin-3-yl)ethynyl)benzonitrile], the IC50 at mGluR5 receptors (Table A2, pre-incubated 10 minutes before L-quisqualate (100 nM), read-out: rIC50) is 2330 nM; in assay [1] (Table A2, negative modulation, compounds added 5 minutes before L-quisqualic acid (~80% of the maximal signal), h5CHO cells, read-out: hIC50), 740 nM.
For the compound `CCCN1CCO[C@H]2c3cc(C#Cc4ccccc4)cnc3CC[C@@H]21` (racemic) [Example 22, (rac)-trans-9-(Phenylethynyl)-4-propyl-3,4,4a,5,6,10b-hexahydro-2H-[1,4]oxazino[2,3-f]quinoline], the r left shift at mGluR5 receptors (setting [5]) is listed as 1.8-fold. Further, in assay [1] (setting [7]), the h left shift is 2.2-fold. Further, in assay [1] (Table A1), the EC50 stood at 1800 nM.
For the compound `FC(F)(F)CCN1CCO[C@@H]2c3cc(C#Cc4ccccc4)cnc3CC[C@@H]21` (racemic) [Example 25, (rac)-cis-9-(Phenylethynyl)-4-(3,3,3-trifluoropropyl)-3,4,4a,5,6,10b-hexahydro-2H-[1,4]oxazino[2,3-f]quinoline], at mGluR5 receptors (setting [5]), the r left shift is 3.6-fold. Further, the EC50 at mGluR5 receptors (setting [6]) came out at 136 nM; in assay [1] (Table A1) it was 36.9 nM. In assay [1] (setting [7]), the h left shift was 2.0-fold.
